From patent publication US12427192B2, “Water soluble adjuvant and composition containing same” (Sumitomo Pharma Co., Ltd., priority 2019, dated 2025)

Tests used:
[1] = system: HLA-A*02:01 transgenic mouse; assay: Test 4: in vivo adjuvant activity, cocktail vaccine a, IFNγ ELISPOT
Procedure: Evaluation of in vivo adjuvant activity in HLA-A*02:01 transgenic mouse
The in vivo adjuvant activity of the compound of Example 1 and the compound of Reference example 12 was evaluated in the following procedure. To a cocktail vaccine comprising Compound of formula 4 prepared in Reference example 8 and Peptide SEQ ID No. 3 prepared in Reference example 3 with a preliminarily-emulsified composition (hereinafter, referred to as “cocktail vaccine a”) was added the compound prepared in Example 1 or the compound prepared in Reference example 12 respectively to prepare each vaccine. The vaccine was administered to a HLA-A*02:01 transgenic mouse, and the adjuvant activity of each vaccine was evaluated by the method of testing antigen-specific CTL induction.
The RMFPNAPYL (SEQ ID No. 1) in Compound of formula 4 and the VLDFAPPGA (SEQ ID No. 4) in Peptide SEQ ID No. 3 correspond to antigen peptides derived from an HLA-A*02:01-restricted WT1 protein.
HLA-A*02:01 transgenic mouse (C57BL/6CrHLA-A2.1DR1) lacks mouse MHC, and instead expresses a chimeric HLA of a human MHC (HLA-A*02:01) and a mouse MHC (H-2D^b), and HLA-DRB1*01:01. […]
The character for inducing CTLs specific to the antigen peptide (SEQ ID No. 1 or SEQ ID No. 4) by cocktail vaccine a was evaluated by measuring whether IFNγ can be produced upon stimulation of splenocytes from the mouse with the corresponding peptide. […]

[2] = system: HLA-A*02:01 transgenic mouse; assay: Test 18: in vivo adjuvant activity, cocktail vaccine m (liposome formulation 3), IFNγ ELISPOT; settings: added to cocktail vaccine m (liposome formulation 3); 0.4 nmol per body, twice; FIG. 22
Procedure: Evaluation of In Vivo Adjuvant Activity in HLA-A*02:01 Transgenic Mouse
The in vivo adjuvant activity of the compound of Example 1 was evaluated in the following procedure. To a vaccine (liposome formulation 3) comprising Compound of formula 4 prepared in Reference example 8 and Peptide SEQ ID No. 3 prepared in Reference example 3 (hereinafter, referred to as “cocktail vaccine m”) was added the compound prepared in Example 1 to prepare a vaccine. The vaccine was administered to a HLA-A*02:01 transgenic mouse, and the adjuvant activity of the vaccine was evaluated by the method of testing antigen-specific CTL induction.
For example, the above liposome formulation 3 was prepared as follows. 36.7 mg of 1,2-dipalmitoyl-sn-glycero-3-phosphocholine, 7.58 mg of 1,2-dipalmitoyl-sn-glycero-3-phospho-L-serine sodium salt, and 15.47 mg of cholesterol were dissolved in t-butyl alcohol/water mixture, and the mixture was lyophilized. […]
Cocktail vaccine m was injected to mice intradermally at the tail base area in an amount for administering 500 μg of Compound of formula 4 per body and 375 μg of Peptide SEQ ID No. 3 per body. […] Then, after removal of the supernatant from the wells, stained spots on the ELISPOT plate were counted.

CCCCCNc1nc(N)nc(C)c1Cc1ccc(CN(C)CCOCCOCCOCCOCCO)cc1OC [Example 1, 1-(4-{[2-amino-4-methyl-6-(pentylamino)pyrimidin-5-yl]methyl}-3-methoxyphenyl)-2-methyl-5,8,11,14-tetraoxa-2-azahexadecan-16-ol·trifluoroacetate] was tested, and the “CTL counts responsive to Peptide of SEQ ID No. 1 or SEQ ID No. 4 compared with Reference example 12” value ([1]; added to cocktail vaccine a, 32.5 ng Example 1 vs 22.5 ng Reference example 12 per body) was “more”, the “induced CTL count on adding the compound to the vaccine” value ([1]; cocktail vaccine a, 32.5 ng Example 1 per body) was “increases” and the “CTL counts responsive to Peptide SEQ ID No. 1 compared with adding no compound” value [2] was “more”.
